Experimental data from paper PMC10593742, “Binding mechanism and biological effects of flavone DYRK1A inhibitors for the design of new antidiabetics” (Scientific Reports, 2023).
Read-outs that look alike come from different tables or passages of the source.

Key:
INS-1E cells [1] = test: Insulin expression level by flow cytometry, INS-1E; format: cell-based, rat; conditions: for effect on insulin level over 12 days: compound alone, 24 h incubation; for insulin level: harmine 1 μM
[2] = tested on: hiPSC-derived beta cells organoids; test: Glucose-stimulated insulin secretion by ELISA, hiPSC-derived pancreatic islet organoids; format: cell-based, human; conditions: 24 h incubation; for insulin secretion by organoids (GSIS, ELISA): compound alone
Protocol: Differentiation of hiPSC into iPSC-derived β-cell islets was carried out following the protocol established by Pellegrini et al.[50]. A day before differentiation, 1 × 10^4 cells were seeded on coated with Geltrex (Gibco) 12 wells plate in Essential 8 medium (Gibco) with Y-27632 10 µM (Abcam). The appropriate culture media and required components based on the protocol of Pellegrini with modifications, as published in Barzowska et al.[37].
Cells and organoids were homogenized in lysis buffer.
Figure 9 Quercetin and TGFβ inhibitor—LY364947 collectively support insulin release from hiPSC-derived pancreatic islet organoids. (A) The analysis of insulin secretion by ELISA assay. […] The organoids were immunostained for insulin (green) and cytoskeleton (red). The nuclei were stained with Hoechst 33258 (blue). Scale bars, 20 μm.

MIN6 cells [3] = test: MIN6 cell proliferation by Ki-67 staining and flow cytometry; format: cell-based, mouse; conditions: for Ki-67-positive cells, combination with GLP-1 / Ki-67-positive cells, combination with LY364947: MIN6; for Ki-67-positive cells, combination with GLP-1: GLP-1 5 nM
MIN6 cells [4] = test: Insulin expression level by flow cytometry, MIN6; format: cell-based, mouse; conditions: for effect on insulin level over 12 days: MIN6, compound alone, 24 h incubation
DYRK1A = molecular target: T1, DYRK1A (Homo sapiens, UniProt Q13627); test: Cook activity assay (DYRK1A-catalyzed phosphorylation of DYRKtide, ADP production linked to PK/LDH NADH oxidation); format: biochemical; conditions: for IC50: read-out: IC50 (DYRK1A inhibition)
T1 construct: In the assay, the truncated DYRK1A protein restricted to the kinase domain (126–490) was used; made in house; host or cells: E. coli LOBSTR strain

[5] = tested on: DYRK1A-dependent CyclinD1 phosphorylation; test: CyclinD1 phosphorylation profile in transfected HEK293T cells (Western blot); format: cell-based; conditions: 10 μM, 6 h; HEK293T co-transfected with HA-CyclinD1 and Flag-DYRK1A
INS-1E cells [6] = test: MTT cytotoxicity and cell survival assay, INS-1E; conditions: for concentration range with increased cell viability (MTT): 24 h; for cytotoxic effect, combination with LY364947 or GLP-1: LY364947 […] or GLP-1 5 nM, gossypin […], rutin 1 μM
[7] = tested on: DYRK1A-related NFAT signaling; test: NFAT activity luciferase assay in HEK293T NFAT cells; format: cell-based; conditions: for increase in Renilla luciferase activity (NFAT reporter): 10 μM, 3 h pre-treatment, then PMA/IM 5 h, relative to DMSO
MIN6 cells [8] = test: MTT cytotoxicity and cell survival assay, MIN6; conditions: MIN6, 24 h
MIN6 cells [9] = test: Glucose-stimulated insulin secretion (GSIS) quantified by ELISA, MIN6; conditions: GLP-1 5 nM
[10] = LogP determination by the shake-flask method; format: physicochemical; conditions: n-octanol/PBS
[11] = tested on: DYRK1A-controlled calcineurin/NFAT pathway; test: NFAT translocation assay (NFAT-GFP, mCherry-DYRK1A) in HEK293T cells; format: cell-based; conditions: 10 μM, 3 h, then IM 5 μM 1 h
[12] = 5 μM, 10 μM and 20 μM of compound, DMSO = 100%
[13] = kinase domain (126–490), compound 20 nM–200 μM, ATP (128 µM)

| Compound | increase in proliferation rate (Ki-67-positive cells) vs control (MIN6 cells [3]; MIN6, compound alone) | effect on residual DYRK1A activity (DYRK1A; [12]) | CyclinD1 phosphorylation (p-CyclinD1 at Thr289) [5] | IC50 (DYRK1A; [13]) [µM] | concentration range with increased cell viability (MTT) (INS-1E cells [6]) | increase in Renilla luciferase activity (NFAT reporter) [7] | concentration range with increased cell viability (MTT) (MIN6 cells [8]) | also measured |
| --- | --- | --- | --- | --- | --- | --- | --- | --- |
| c1ccc(-c2[nH]ncc2-c2ccnc3ccccc23)nc1 [LY364947] | up to 5% |  |  |  |  |  |  | effect on insulin level over 12 days (INS-1E cells [1]): less prominent but constant effect over the 12 days; insulin secretion by organoids (GSIS, ELISA) [2]: less pronounced effect; effect on insulin level over 12 days (MIN6 cells [4]): less prominent but constant effect over the 12 days |
| O=c1cc(-c2ccc(O)cc2)oc2cc(O[C@@H]3O[C@H](CO)[C@@H](O)[C@H](O)[C@H]3O)cc(O)c12 [apigetrin, 5-hydroxy-2-(4-hydroxyphenyl)-7[(2S,3R,4S,5S,6R)3,4,5-trihydroxy-6-(hydroxymethyl)oxan-2-yl]oxychromen-4-one] |  | no influence on DYRK1A activity |  |  |  |  |  |  |
| O=c1cc(-c2ccccc2)oc2cc(O)c(O)c(O)c12 [baicalein, 5,6,7-trihydroxy-2-phenylchromen-4-one] | 5% | decreased DYRK1A activity dose-dependently | significantly reduced CyclinD1 phosphorylation | 3.6 | 0.1 to 2.5 µM | threefold | 0.1 to 2.5 µM | insulin secretion (GSIS, ELISA), combination with GLP-1 (MIN6 cells [9]): improve insulin secretion; Ki-67-positive cells, combination with GLP-1 (MIN6 cells [3]; control cells 32%): 55%; Ki-67-positive cells, combination with LY364947 (MIN6 cells [3]; control cells 32%): 48%; logP at 15 min [10]: 2.55 |
| COc1cc(-c2cc(=O)c3c(O)c(OC)c(OC)c(OC)c3o2)cc(OC)c1OC [gardenin A, 5-hydroxy-6,7,8-trimethoxy-2-(3,4,5-trimethoxyphenyl)chromen-4-one] |  | no influence on DYRK1A activity |  |  |  |  |  |  |
| O=c1c(O)c(-c2ccc(O)c(O)c2)oc2c(O[C@@H]3O[C@H](CO)[C@@H](O)[C@H](O)[C@H]3O)c(O)cc(O)c12 [gossypin, 2-(3,4-dihydroxyphenyl)-3,5,7-trihydroxy-8-[(2S,3R,4S,5S,6R)-3,4,5-trihydroxy-6-(hydroxymethyl)oxan-2-yl]oxychromen-4-one] |  | decreased DYRK1A activity dose-dependently | significantly reduced CyclinD1 phosphorylation | 1.4 | did not influence cell viability | twofold | did not influence cell viability | cytotoxic effect, combination with LY364947 or GLP-1 (INS-1E cells [6]): slight cytotoxic effect; LogP [10]: negative logP |
| COc1ccc2c(c1)[nH]c1c(C)nccc12 [harmine] | about 20% |  |  |  | 1 to 2.5 µM |  | 0.01 to 10 µM | effect on the GLP-1-induced increase in insulin production level, administered simultaneously with GLP-1 (INS-1E cells [1]; GLP-1 5 nM): attenuated; insulin level (INS-1E cells [1]; day 1, control 10%): 37%; insulin level (INS-1E cells [1]; day 5, control 28%): 34%; concentrations at which mild toxicity was observed (MTT) (MIN6 cells [8]): higher than 50 μM; insulin secretion by organoids (GSIS, ELISA), with LY364947 addition [2]: enhanced by LY364947 addition; insulin secretion by organoids (GSIS, ELISA) [2]: highest insulin secretion level; Ki-67-positive cells (MIN6 cells [3]; MIN6, compound alone, control cells 32%): 50%; Ki-67-positive cells, combination with GLP-1 (MIN6 cells [3]; control cells 32%): 55%; Ki-67-positive cells, combination with LY364947 (MIN6 cells [3]; control cells 32%): 58%; insulin level (MIN6 cells [4]; MIN6, day 12, control 24%, harmine 1 μM): 37%; effect on the GLP-1-induced increase in insulin production level, administered simultaneously with GLP-1 (MIN6 cells [4]; MIN6, GLP-1 5 nM): attenuated; logP at 15 min [10]: 3.24; nuclear translocation of NFAT-GFP despite mCherry-DYRK1A overexpression [11]: induced nuclear translocation of NFAT-GFP |
| O=c1c(O)c(-c2ccc(O)cc2)oc2c(O)c(O)cc(O)c12 [herbacetin, 3,5,7,8-tetrahydroxy-2-(4-hydroxyphenyl)chromen-4-one] |  | decreased DYRK1A activity dose-dependently | Moderate inhibition of CyclinD1 phosphorylation | 6.3 | Identical results |  | Identical results | activation of NFAT response ([7]; 1 to 10 μM): only effective at the highest concentration tested; logP at 15 min [10]: 1.72 |
| C[C@@H]1O[C@@H](Oc2c(-c3cc(O)c(O)c(O)c3)oc3cc(O)cc(O)c3c2=O)[C@H](O)[C@H](O)[C@H]1O [myricitrin, 5,7-dihydroxy-3-[(2S,3R,4R,5R,6S)-3,4,5-trihydroxy-6-methyloxan-2-yl]oxy-2-(3,4,5-trihydroxyphenyl)chromen-4-one] |  | no influence on DYRK1A activity |  |  |  |  |  |  |
| O=c1c(O)c(-c2ccc(O)c(O)c2)oc2cc(O)cc(O)c12 [quercetin, 2-(3,4-dihydroxyphenyl)-3,5,7-trihydroxychromen-4-one] |  |  | significantly reduced CyclinD1 phosphorylation |  | 0.25 to 5 µM | threefold | 0.25 to 5 µM | effect on residual DYRK1A activity (DYRK1A): decreased DYRK1A activity dose-dependently; IC50 (DYRK1A): 1.7 µM; effect on insulin level over 12 days (INS-1E cells [1]): noticeable decrease in insulin level on day 12; insulin secretion by organoids (GSIS, ELISA), with LY364947 addition [2]: enhanced by LY364947 addition; insulin secretion by organoids (GSIS, ELISA) [2]: significant increase in insulin secretion; Ki-67-positive cells, combination with GLP-1 (MIN6 cells [3]; control cells 32%): modest effect; effect on insulin level over 12 days (MIN6 cells [4]): noticeable decrease in insulin level on day 12; LogP [10]: 1.40 |
| C[C@@H]1O[C@@H](OC[C@H]2O[C@@H](Oc3c(-c4ccc(O)c(O)c4)oc4cc(O)cc(O)c4c3=O)[C@H](O)[C@@H](O)[C@@H]2O)[C@H](O)[C@H](O)[C@H]1O [rutin, 2-(3,4-dihydroxyphenyl)-5,7-dihydroxy-3-[(2S,3R,4S,5S,6R)-3,4,5-trihydroxy-6-[[(2R,3R,4R,5R,6S)-3,4,5-trihydroxy-6-methyloxan-2-yl]oxymethyl]oxan-2-yl]oxychromen-4-one] |  | decreased DYRK1A activity dose-dependently | significantly reduced CyclinD1 phosphorylation | 4.5 | did not influence cell viability | twofold | did not influence cell viability | cytotoxic effect, combination with LY364947 or GLP-1 (INS-1E cells [6]): slight cytotoxic effect; LogP [10]: negative logP |
| COc1ccc(-c2cc(=O)c3c(OC)c(OC)c(OC)cc3o2)cc1OC [sinensetin, 2-(3,4-dimethoxyphenyl)-5,6,7-trimethoxychromen-4-one] |  | no influence on DYRK1A activity |  |  |  |  |  |  |
| GLP-1: GLP-1R agonist | up to 5% |  |  |  |  |  |  | effect on insulin level over 12 days (INS-1E cells [1]): robust increase in insulin production level in the late stage of the experiment (day 5–12); effect on insulin level over 12 days (MIN6 cells [4]): robust increase in insulin production level in the late stage of the experiment (day 5–12) |
